Experimental data taken from patent EP1270000A2, “Benzoic acid substituted benzopyrans for the treatment of atherosclerosis” (Pfizer Products Inc., priority 2001, dated 2003).

Tests used:
[1] = Body weight of treated mice; assay type: in vivo
Experimental: (§1) Administration of Compound. Compound of formula I, preferably (3S, 4R)-7-(2-carboxy-5-trifluoromethylphenyl)-4-hydroxy-3-benzyl-3,4-dihydro-2H-1-benzopyran, was evaluated for its effects on lesion development in age-matched groups of mice (15 to 30 weeks of age at time of sacrifice) using a 35 day treatment protocol. Subgroups of mice were treated with (3S, 4R)-7-(2-carboxy-5-trifluoromethylphenyl)-4-hydroxy-3-benzyl-3,4-dihydro-2H-1-benzopyran for shorter times (7-14 days) for evaluation of acute changes in tissue gene expression as noted in the table and figure legends. In all study groups, the compound was administered by oral gavage once daily in a vehicle comprised of 0.6% Tween 80 + 0.25% methylcellulose in PBS. […]

CD11b = experiment: Immunohistochemical staining of macrophages (CD11b) in atherosclerotic lesions; assay type: in vivo, mice; details: 30 mg/kg/d orally for 35 days, mean ± SD, N=8/group
Experimental: (§2) Administration of Compound. Compound of formula I, preferably (3S, 4R)-7-(2-carboxy-5-trifluoromethylphenyl)-4-hydroxy-3-benzyl-3,4-dihydro-2H-1-benzopyran, was evaluated for its effects on lesion development in age-matched groups of mice (15 to 30 weeks of age at time of sacrifice) using a 35 day treatment protocol. Subgroups of mice were treated with (3S, 4R)-7-(2-carboxy-5-trifluoromethylphenyl)-4-hydroxy-3-benzyl-3,4-dihydro-2H-1-benzopyran for shorter times (7-14 days) for evaluation of acute changes in tissue gene expression as noted in the table and figure legends. In all study groups, the compound was administered by oral gavage once daily in a vehicle comprised of 0.6% Tween 80 + 0.25% methylcellulose in PBS. Mice received either vehicle alone, 30mg/kg/day, or 100mg/kg/day of compound of formula I.
Immunohistochemical Staining of Macrophages. Serial paraformaldehyde fixed, OCT embedded sections of aortic valves were immunostained for macrophages using rat monoclonal antibodies (IgG2b) against MOMA-2 (BioSource) and CD11b (Pharmingen). Endogenous biotin and peroxidase activity were blocked by incubating each section with an avidin/biotin solution (Vector Laboratories), and 0.3% H2O2 in 1% bovine serum, respectively. […] Results are expressed as the percent of the total cross-sectional vessel wall area (normal + diseased area/ section, excluding the lumen) stained with DAB. […]

LDLr^-/- = experiment: Lesion analysis (Oil red O, aortic sinus and valve) in atherosclerotic mice; assay type: in vivo; parameters: Lesion size: unit not given here
From the text: (§3) Mouse line derivation. Genetically modified apolipoprotein E-deficient (ApoE^-/-), low density lipoprotein (LDL) receptor-deficient (LDLr^-/-), and monocyte chemoattractant protein-1-deficient (MCP-1^-/-) mice used in the present study have been previously described and characterized [See Rutledge, B.J. et. al., J. Immunol., 1995;155:4838-4843; and Nakashima Y, et. al., Arterioscler. Thromb., 1994;14(1):133-140]. To obtain mice homozygous for both the apoE and MCP-1 (ScyA2) null alleles, male ApoE^-/- mice on a C57B/6 background (C57E^- ^/-) were mated with heterozygous female MCP-1^-/+ mice on a C57B/6 background. The resulting ApoE^-/- x MCP-1^-/+ progeny were identified by Southern blot analysis and inbred to produce ApoE^-/- x MCP-1^-/- (C57E^-/- x MCP-1 ^-/-) and control ApoE ^-/- x MCP-1^+/+ (C57E-/-) mice. ApoE^-/- mice on the mixed genetic background 1290la x C57B/6 (129E^-/-) were bred in-house and derived from brother and sister matings. All mice were weaned at 21 days, maintained on a 12 hour light/dark cycle and fed either a chow or a Western-type diet [See, Bourassa, P.K., et. al., Proc Natl Acad. Sci. USA, 1996;93:10022-10027].
Administration of Compound. Compound of formula I, preferably (3S, 4R)-7-(2-carboxy-5-trifluoromethylphenyl)-4-hydroxy-3-benzyl-3,4-dihydro-2H-1-benzopyran, was evaluated for its effects on lesion development in age-matched groups of mice (15 to 30 weeks of age at time of sacrifice) using a 35 day treatment protocol. […]
Lesion Analysis. […] Each section of the aortic valve was evaluated for Oil red O staining area by capturing images directly from a RGB camera attached to a Leitz Laborlux S (Leica) light microscope for display on a Trinitron RGB monitor. […] Results are expressed as the average lesion size per section or as the percent of the total cross sectional vessel wall stained with Oil red O. For each animal, the average lesion area of 12-16 sections was determined and data are expressed as lesion size or mean percent lesion area ±S.D. […]

MCP-1 ^-/- X ApoE^-/- = experiment: Lesion analysis (Oil red O, aortic sinus and valve) in MCP-1 deficient mice; assay type: in vivo; details: M, mean ±SD
From the text: as §3, §2
(§4) Lesion Analysis. To determine cross-sectional lesion area, hearts were perfusion-fixed in 4% paraformaldehyde, infiltrated with 30% gum sucrose for 24 hours at 4°C, and embedded in OCT compound and sectioned 10µm, -18°C, as previously described [See Borgeat P., et.al., J. Biol. Chem., 1979;254:2643-2646] and the sections were stained with Oil red O (Polyscientific, Bay Shore NY) and counterstained with Gill III hematoxylin (Sigma, St. Louis MO). Each section of the aortic valve was evaluated for Oil red O staining area by capturing images directly from a RGB camera attached to a Leitz Laborlux S (Leica) light microscope for display on a Trinitron RGB monitor. Image analysis was performed using ImagePro 3.1' software as described previously [See Bourassa, P.K., et. al., Proc Natl. Acad. Sci. USA, 1996;93:10022-10027]. Results are expressed as the average lesion size per section or as the percent of the total cross sectional vessel wall stained with Oil red O. For each animal, the average lesion area of 12-16 sections was determined and data are expressed as lesion size or mean percent lesion area ±S.D.
Referring to Table 4, mice homozygous for the null alleles of Monocyte chemoattractant protein-1 (MCP-1^-/-) and apolipoprotein E (ApoE^-/-) (MCP-1 ^-/- X ApoE^-/-) on a C57bl/6 background (C57E^-/-) mice were treated for 35 days orally with (3S, 4R)-7-(2-carboxy-5-trifluoromethylphenyl)-4-hydroxy-3-benzyl-2H-1-benzopyran) at doses indicated 0, 30 or 100mg/kg. The mean percent lesion area in 10 µ sections of the aortic sinus and valve region was calculated following oil red O staining, Values are reported as means ±SD. The term "ND" is defined as Not Determined. The term "TPC" is defined as Total Plasma Cholesterol. The term "TG" is defined as Triglycerides. The term "sinus" is defined as a region of the aortic valve; moving up from the base of the heart; which begins at the first appearance of the aortic valve cusps, dividing the lumen into three distinct regions. […]

C57E^-/- = experiment: Lesion analysis (Oil red O, aortic sinus and valve) in atherosclerotic mice; assay type: in vivo; details: 100 mg/kg orally 35 days, chow diet, mean ±SD
From the text: as §3
Administration of Compound. Compound of formula I, preferably (3S, 4R)-7-(2-carboxy-5-trifluoromethylphenyl)-4-hydroxy-3-benzyl-3,4-dihydro-2H-1-benzopyran, was evaluated for its effects on lesion development in age-matched groups of mice (15 to 30 weeks of age at time of sacrifice) using a 35 day treatment protocol. Subgroups of mice were treated with (3S, 4R)-7-(2-carboxy-5-trifluoromethylphenyl)-4-hydroxy-3-benzyl-3,4-dihydro-2H-1-benzopyran for shorter times (7-14 days) for evaluation of acute changes in tissue gene expression as noted in the table and figure legends. […]
Lesion Analysis. […] Each section of the aortic valve was evaluated for Oil red O staining area by capturing images directly from a RGB camera attached to a Leitz Laborlux S (Leica) light microscope for display on a Trinitron RGB monitor. […] Results are expressed as the average lesion size per section or as the percent of the total cross sectional vessel wall stained with Oil red O. For each animal, the average lesion area of 12-16 sections was determined and data are expressed as lesion size or mean percent lesion area ±S.D.
Referring to Table 2, Apolipoprotein E-deficient mice on a mixed 129Io/B6 (129E^-/-) or a C57BI/6 background (C57E^-/-), mice homozygous low density lipoprotein receptor deficient mice LDLR^-/- mice were treated for 35 days orally with (3S, 4R)-7-(2-carboxy-5-trifluoromethylphenyl)-4-hydroxy-3-benzyl-2H-1-benzopyran) at doses indicated. […] The mean percent lesion area in 10 µ sections of the aortic sinus and valve region was calculated following oil red O staining, Values are reported as means ±SD. The term "ND" is defined as Not Determined. […]

129E^-/- = experiment: as above; assay type: in vivo; parameters: Lesion size: unit not given here; details: chow diet; for Sinus (% lesion) / Valve (%lesion): 129E^-/-, F, mean ±SD
From the text: as §3, §1, §4
Referring to Table 2, Apolipoprotein E-deficient mice on a mixed 129Io/B6 (129E^-/-) or a C57BI/6 background (C57E^-/-), mice homozygous low density lipoprotein receptor deficient mice LDLR^-/- mice were treated for 35 days orally with (3S, 4R)-7-(2-carboxy-5-trifluoromethylphenyl)-4-hydroxy-3-benzyl-2H-1-benzopyran) at doses indicated. LDLR^-/- was fed a Western diet; all other strains were maintained on chow diet. The mean percent lesion area in 10 µ sections of the aortic sinus and valve region was calculated following oil red O staining, Values are reported as means ±SD. The term "ND" is defined as Not Determined. The term "TPC" is defined as Total Plasma Cholesterol. The term "TG" is defined as Triglycerides. The term "sinus" is defined as a region of the aortic válve; moving up from the base of the heart; which begins at the first appearance of the aortic valve cusps, dividing the lumen into three distinct regions. In the sinus, the aortic wall is bulging and irregular. […]

[2] = LDLr^-/-, M, 18 wks, 30 mg/kg orally 35 days, Western diet, mean ±SD
[3] = 15 wks, 30 mg/kg orally 35 days
[4] = 15 wks, 100 mg/kg orally 35 days
[5] = 30 wks, 30 mg/kg orally 35 days
[6] = 30 wks, 100 mg/kg orally 35 days
[7] = 15 wks, 50 mg/kg orally 35 days
[8] = 20 wks, 30 mg/kg orally 35 days
[9] = 24 wks, 100 mg/kg orally 35 days

Structure (SMILES): O=C(O)c1ccc(C(F)(F)F)cc1-c1ccc2c(c1)OC[C@H](Cc1ccccc1)[C@H]2O [(3S, 4R)-7-(2-carboxy-5-trifluoromethylphenyl)-4-hydroxy-3-benzyl-3,4-dihydro-2H-1-benzopyran]
- Body wt(gm) ([1]; 129E^-/-, F, 15 wks, 30 mg/kg orally 35 days, chow diet): 26±2 gm
- Body wt(gm) ([1]; 129E^-/-, F, 15 wks, 50 mg/kg orally 35 days, chow diet): 25±2 gm
- Body wt(gm) ([1]; 129E^-/-, F, 15 wks, 100 mg/kg orally 35 days, chow diet): 25±1 gm
- Body wt(gm) ([1]; 129E^-/-, F, 20 wks, 30 mg/kg orally 35 days, chow diet): 29±1 gm
- Body wt(gm) ([1]; 129E^-/-, F, 24 wks, 100 mg/kg orally 35 days, chow diet): 31±1 gm
- Body wt(gm) ([1]; C57E^-/-, F, 22 wks, 100 mg/kg orally 35 days, chow diet): 30 gm
- Body wt(gm) ([1]; C57E^-/-, M, 16 wks, 100 mg/kg orally 35 days, chow diet): 29±1 gm
- Body wt(gm) ([1]; LDLr^-/-, M, 18 wks, 30 mg/kg orally 35 days, Western diet): 31±2 gm
- Body wt(gm) ([1]; MCP-1 ^-/- X ApoE^-/-, M, 15 wks, 30 mg/kg orally 35 days): 29±1 gm
- Body wt(gm) ([1]; MCP-1 ^-/- X ApoE^-/-, M, 15 wks, 100 mg/kg orally 35 days): 29±1 gm
- Body wt(gm) ([1]; MCP-1 ^-/- X ApoE^-/-, M, 30 wks, 30 mg/kg orally 35 days): 31±1 gm
- Body wt(gm) ([1]; MCP-1 ^-/- X ApoE^-/-, M, 30 wks, 100 mg/kg orally 35 days): 26±1 gm
- % CD11b (mean percent of the lesion staining positively for CD11b) (CD11b; female 129E^-/-, chow diet): 3.5±1.0 %
- % CD11b (mean percent of the lesion staining positively for CD11b) (CD11b; male LDLr^-/-, Western-type diet): 3.5±2.5 %
- Sinus (% lesion) (LDLr^-/-; [2]): 5.6±2 %
- Valve (%lesion) (LDLr^-/-; [2]): 6.5±3 %
- Lesion size (LDLr^-/-; male LDLr^-/-, Western-type diet, 30 mg/kg/d orally for 35 days, mean ± SD, N=8/group): 19955±7278
- Sinus (% lesion) (MCP-1 ^-/- X ApoE^-/-; [3]): 13.3±2%
- Valve (%lesion) (MCP-1 ^-/- X ApoE^-/-; [3]): 12.8±2%
- Sinus (% lesion) (MCP-1 ^-/- X ApoE^-/-; [4]): 9.8±1%
- Valve (%lesion) (MCP-1 ^-/- X ApoE^-/-; [4]): 9.7±1%
- Sinus (% lesion) (MCP-1 ^-/- X ApoE^-/-; [5]): 41.4±5%
- Valve (%lesion) (MCP-1 ^-/- X ApoE^-/-; [5]): 54.2±7%
- Sinus (% lesion) (MCP-1 ^-/- X ApoE^-/-; [6]): 43.1±5%
- Valve (%lesion) (MCP-1 ^-/- X ApoE^-/-; [6]): 50.0±4%
- Sinus (% lesion) (C57E^-/-; F, 22 wks): 38.8±3%
- Valve (%lesion) (C57E^-/-; F, 22 wks): 39±2%
- Sinus (% lesion) (C57E^-/-; M, 16 wks): 10.4±3 %
- Valve (%lesion) (C57E^-/-; M, 16 wks): 7.8±2 %
- Sinus (% lesion) (129E^-/-; [3]): 19.6±2%
- Valve (%lesion) (129E^-/-; [3]): 21.6±2%
- Sinus (% lesion) (129E^-/-; [7]): 14.7±2 %
- Valve (%lesion) (129E^-/-; [7]): 16.3±2 %
- Sinus (% lesion) (129E^-/-; [4]): 7.9±1 %
- Valve (%lesion) (129E^-/-; [4]): 8.0±2 %
- Sinus (% lesion) (129E^-/-; [8]): 24.4±3%
- Valve (%lesion) (129E^-/-; [8]): 25.9±3 %
- Sinus (% lesion) (129E^-/-; [9]): 30.0±1%
- Valve (%lesion) (129E^-/-; [9]): 34.0±1%
- Lesion size (129E^-/-; female 129E^-/-, 30 mg/kg/d orally for 35 days, mean ± SD, N=8/group): 10650±12133
